In paper PMC4268243 (Nuclear medicine and biology, 2014):

Legend:
Assay type in all cases: in vivo
[1] = system: DU145 tumor xenograft; experiment: Biodistribution in DU145 tumor-bearing SCID mice; details: listed as (S)-[^18F]FAMP 1
[2] = system: U87 tumor xenograft; experiment: Biodistribution in U87 tumor-bearing SCID mice; details: listed as (S)-[^18F]FAMP 1
[3] = system: MDA MB468 tumor xenograft; experiment: Biodistribution in MDA MB468 tumor-bearing SCID mice
[4] = 15 min post injection, listed as (S)-[^18F]FAMP 1
[5] = 30 min post injection, listed as (S)-[^18F]FAMP 1
[6] = 60 min post injection, listed as (S)-[^18F]FAMP 1
[7] = 120 min post injection, listed as (S)-[^18F]FAMP 1

Question: `CC(N)(C[18F])C(=O)O` [(S)-[^18F]1] [2-amino-3-[^18F]fluoro-2-methylpropanoic acid] was tested. Which uptake in blood ([1]; 15 min post injection) did it give?
Answer: 5.1±1.1 %ID/g

Question: What about the uptake in bone ([1]; 15 min post injection) of the same compound?
Answer: 2.4±1.1 %ID/g

Question: And the uptake in brain ([1]; 15 min post injection)?
Answer: 0.6±0.1 %ID/g

Question: What about the uptake in heart ([1]; 15 min post injection) of the same compound?
Answer: 3.2±1.2 %ID/g

Question: What about the uptake in kidney ([1]; 15 min post injection) of the same compound?
Answer: 36±5.1 %ID/g

Question: What about the uptake in liver ([1]; 15 min post injection) of the same compound?
Answer: 3.4±0.6 %ID/g

Question: And the uptake in lung ([1]; 15 min post injection)?
Answer: 6.5±1.5 %ID/g

Question: What about the uptake in muscle ([1]; 15 min post injection) of the same compound?
Answer: 4.0±0.8 %ID/g

Question: What about the uptake in pancreas ([1]; 15 min post injection) of the same compound?
Answer: 55±8.8 %ID/g

Question: What about the uptake in spleen ([1]; 15 min post injection) of the same compound?
Answer: 7.9±2.3 %ID/g

Question: And the uptake in tumor ([1]; 15 min post injection)?
Answer: 3.2±2.5 %ID/g

Question: And the uptake in blood ([1]; 30 min post injection)?
Answer: 2.9±1.1 %ID/g

Question: What about the uptake in bone ([1]; 30 min post injection) of the same compound?
Answer: 2.2±0.5 %ID/g

Question: What about the uptake in brain ([1]; 30 min post injection) of the same compound?
Answer: 0.5±0.2 %ID/g

Question: And the uptake in heart ([1]; 30 min post injection)?
Answer: 3.2±1.3 %ID/g

Question: What about the uptake in kidney ([1]; 30 min post injection) of the same compound?
Answer: 21±6.2 %ID/g

Question: What about the uptake in liver ([1]; 30 min post injection) of the same compound?
Answer: 2.9±0.9 %ID/g

Question: And the uptake in lung ([1]; 30 min post injection)?
Answer: 5.0±2.6 %ID/g

Question: And the uptake in muscle ([1]; 30 min post injection)?
Answer: 2.9±0.2 %ID/g

Question: And the uptake in pancreas ([1]; 30 min post injection)?
Answer: 37±13 %ID/g

Question: What about the uptake in spleen ([1]; 30 min post injection) of the same compound?
Answer: 6.6±1.1 %ID/g

Question: And the uptake in tumor ([1]; 30 min post injection)?
Answer: 1.8±0.4 %ID/g

Question: And the uptake in blood ([1]; 60 min post injection)?
Answer: 2.4±0.04 %ID/g

Question: What about the uptake in bone ([1]; 60 min post injection) of the same compound?
Answer: 2.1±0.2 %ID/g

Question: What about the uptake in brain ([1]; 60 min post injection) of the same compound?
Answer: 0.6±0.1 %ID/g

Question: What about the uptake in heart ([1]; 60 min post injection) of the same compound?
Answer: 3.5±0.3 %ID/g

Question: What about the uptake in kidney ([1]; 60 min post injection) of the same compound?
Answer: 17±0.6 %ID/g

Question: What about the uptake in liver ([1]; 60 min post injection) of the same compound?
Answer: 3.3±0.5 %ID/g

Question: And the uptake in lung ([1]; 60 min post injection)?
Answer: 3.4±0.8 %ID/g

Question: What about the uptake in muscle ([1]; 60 min post injection) of the same compound?
Answer: 2.5±0.3 %ID/g

Question: And the uptake in pancreas ([1]; 60 min post injection)?
Answer: 36±3.1 %ID/g

Question: What about the uptake in spleen ([1]; 60 min post injection) of the same compound?
Answer: 9.2±5.1 %ID/g

Question: What about the uptake in tumor ([1]; 60 min post injection) of the same compound?
Answer: 3.4±1.7 %ID/g

Question: And the uptake in blood ([1]; 120 min post injection)?
Answer: 1.8±0.4 %ID/g

Question: And the uptake in bone ([1]; 120 min post injection)?
Answer: 1.6±0.4 %ID/g

Question: What about the uptake in brain ([1]; 120 min post injection) of the same compound?
Answer: 0.6±0.1 %ID/g

Question: And the uptake in heart ([1]; 120 min post injection)?
Answer: 3.0±0.7 %ID/g

Question: What about the uptake in kidney ([1]; 120 min post injection) of the same compound?
Answer: 13±1.7 %ID/g

Question: And the uptake in liver ([1]; 120 min post injection)?
Answer: 2.8±0.7 %ID/g

Question: And the uptake in lung ([1]; 120 min post injection)?
Answer: 3.3±1.1 %ID/g

Question: And the uptake in muscle ([1]; 120 min post injection)?
Answer: 1.7±0.5 %ID/g

Question: What about the uptake in pancreas ([1]; 120 min post injection) of the same compound?
Answer: 28±7.4 %ID/g

Question: What about the uptake in spleen ([1]; 120 min post injection) of the same compound?
Answer: 5.3±1.8 %ID/g

Question: And the uptake in tumor ([1]; 120 min post injection)?
Answer: 3.5±0.7 %ID/g

Question: What about the uptake in blood ([2]; 15 min post injection) of the same compound?
Answer: 3.5±0.4 %ID/g

Question: What about the uptake in bone ([2]; 15 min post injection) of the same compound?
Answer: 2.4±0.7 %ID/g

Question: And the uptake in brain ([2]; 15 min post injection)?
Answer: 0.5±0.1 %ID/g

Question: What about the uptake in heart ([2]; 15 min post injection) of the same compound?
Answer: 3.1±0.4 %ID/g

Question: What about the uptake in kidney ([2]; 15 min post injection) of the same compound?
Answer: 37±4.9 %ID/g

Question: And the uptake in liver ([2]; 15 min post injection)?
Answer: 6.6±2.0 %ID/g

Question: What about the uptake in lung ([2]; 15 min post injection) of the same compound?
Answer: 4.6±0.6 %ID/g

Question: What about the uptake in muscle ([2]; 15 min post injection) of the same compound?
Answer: 3.3±0.7 %ID/g

Question: And the uptake in pancreas ([2]; 15 min post injection)?
Answer: 48±11 %ID/g

Question: What about the uptake in spleen ([2]; 15 min post injection) of the same compound?
Answer: 11±2.7 %ID/g

Question: And the uptake in tumor ([2]; 15 min post injection)?
Answer: 6.4±1.3 %ID/g

Question: And the uptake in blood ([2]; 30 min post injection)?
Answer: 3.7±0.7 %ID/g

Question: What about the uptake in bone ([2]; 30 min post injection) of the same compound?
Answer: 2.1±0.5 %ID/g

Question: And the uptake in brain ([2]; 30 min post injection)?
Answer: 0.6±0.1 %ID/g

Question: And the uptake in heart ([2]; 30 min post injection)?
Answer: 3.1±0.4 %ID/g

Question: And the uptake in kidney ([2]; 30 min post injection)?
Answer: 28±5.2 %ID/g

Question: And the uptake in liver ([2]; 30 min post injection)?
Answer: 6.0±1.0 %ID/g

Question: And the uptake in lung ([2]; 30 min post injection)?
Answer: 3.6±0.5 %ID/g

Question: What about the uptake in muscle ([2]; 30 min post injection) of the same compound?
Answer: 3.3±0.3 %ID/g

Question: And the uptake in pancreas ([2]; 30 min post injection)?
Answer: 50±8.7 %ID/g

Question: What about the uptake in spleen ([2]; 30 min post injection) of the same compound?
Answer: 10±1.0 %ID/g

Question: And the uptake in tumor ([2]; 30 min post injection)?
Answer: 6.8±0.8 %ID/g

Question: And the uptake in blood ([2]; 60 min post injection)?
Answer: 2.1±0.4 %ID/g

Question: What about the uptake in bone ([2]; 60 min post injection) of the same compound?
Answer: 2.0±0.1 %ID/g

Question: What about the uptake in brain ([2]; 60 min post injection) of the same compound?
Answer: 0.6±0.1 %ID/g

Question: What about the uptake in heart ([2]; 60 min post injection) of the same compound?
Answer: 2.8±0.7 %ID/g

Question: What about the uptake in kidney ([2]; 60 min post injection) of the same compound?
Answer: 15±3.3 %ID/g

Question: And the uptake in liver ([2]; 60 min post injection)?
Answer: 4.4±0.6 %ID/g

Question: What about the uptake in lung ([2]; 60 min post injection) of the same compound?
Answer: 2.6±0.8 %ID/g

Question: What about the uptake in muscle ([2]; 60 min post injection) of the same compound?
Answer: 2.3±0.3 %ID/g

Question: And the uptake in pancreas ([2]; 60 min post injection)?
Answer: 32±11 %ID/g

Question: What about the uptake in spleen ([2]; 60 min post injection) of the same compound?
Answer: 6.1±1.1 %ID/g

Question: And the uptake in tumor ([2]; 60 min post injection)?
Answer: 4.4±0.8 %ID/g

Question: What about the uptake in blood ([2]; 120 min post injection) of the same compound?
Answer: 1.2±0.5 %ID/g

Question: What about the uptake in bone ([2]; 120 min post injection) of the same compound?
Answer: 1.0±0.3 %ID/g

Question: And the uptake in brain ([2]; 120 min post injection)?
Answer: 0.7±0.2 %ID/g

Question: What about the uptake in heart ([2]; 120 min post injection) of the same compound?
Answer: 2.1±0.3 %ID/g

Question: And the uptake in kidney ([2]; 120 min post injection)?
Answer: 7.3±1.4 %ID/g

Question: And the uptake in liver ([2]; 120 min post injection)?
Answer: 4.1±1.3 %ID/g

Question: What about the uptake in lung ([2]; 120 min post injection) of the same compound?
Answer: 1.5±0.4 %ID/g

Question: And the uptake in muscle ([2]; 120 min post injection)?
Answer: 1.3±0.3 %ID/g

Question: And the uptake in pancreas ([2]; 120 min post injection)?
Answer: 18±6.4 %ID/g

Question: And the uptake in spleen ([2]; 120 min post injection)?
Answer: 3.4±1.1 %ID/g

Question: And the uptake in tumor ([2]; 120 min post injection)?
Answer: 2.8±0.4 %ID/g

Question: What about the uptake in blood [3, 4] of the same compound?
Answer: 4.2±0.3 %ID/g

Question: What about the uptake in bone [3, 4] of the same compound?
Answer: 2.5±0.3 %ID/g

Question: And the uptake in brain [3, 4]?
Answer: 0.6±0.1 %ID/g

Question: What about the uptake in heart [3, 4] of the same compound?
Answer: 3.4±0.3 %ID/g

Question: And the uptake in kidney [3, 4]?
Answer: 39±3.3 %ID/g

Question: What about the uptake in liver [3, 4] of the same compound?
Answer: 4.8±0.9 %ID/g

Question: What about the uptake in lung [3, 4] of the same compound?
Answer: 4.5±1.3 %ID/g

Question: What about the uptake in muscle [3, 4] of the same compound?
Answer: 3.9±0.7 %ID/g

Question: And the uptake in pancreas [3, 4]?
Answer: 51±10 %ID/g

Question: What about the uptake in spleen [3, 4] of the same compound?
Answer: 14±2.8 %ID/g

Question: What about the uptake in tumor [3, 4] of the same compound?
Answer: 5.8±0.7 %ID/g

Question: What about the uptake in blood [3, 5] of the same compound?
Answer: 3.6±0.4 %ID/g

Question: What about the uptake in bone [3, 5] of the same compound?
Answer: 2.4±0.6 %ID/g

Question: And the uptake in brain [3, 5]?
Answer: 0.8±0.2 %ID/g

Question: And the uptake in heart [3, 5]?
Answer: 3.2±0.3 %ID/g

Question: What about the uptake in kidney [3, 5] of the same compound?
Answer: 29±6.1 %ID/g

Question: What about the uptake in liver [3, 5] of the same compound?
Answer: 4.7±0.8 %ID/g

Question: And the uptake in lung [3, 5]?
Answer: 4.3±1.9 %ID/g

Question: And the uptake in muscle [3, 5]?
Answer: 3.4±0.4 %ID/g

Question: What about the uptake in pancreas [3, 5] of the same compound?
Answer: 56±7.6 %ID/g

Question: And the uptake in spleen [3, 5]?
Answer: 12±4.2 %ID/g

Question: And the uptake in tumor [3, 5]?
Answer: 6.1±1.4 %ID/g

Question: What about the uptake in tumor ([3]; 60 min post injection) of the same compound?
Answer: 4.8±1.2 %ID/g

Question: And the uptake in blood [3, 6]?
Answer: 2.9±1.0 %ID/g

Question: And the uptake in bone [3, 6]?
Answer: 2.2±0.6 %ID/g

Question: What about the uptake in brain [3, 6] of the same compound?
Answer: 0.7±0.1 %ID/g

Question: What about the uptake in heart [3, 6] of the same compound?
Answer: 2.9±0.5 %ID/g

Question: And the uptake in kidney [3, 6]?
Answer: 20±2.7 %ID/g

Question: What about the uptake in liver [3, 6] of the same compound?
Answer: 4.3±0.6 %ID/g

Question: And the uptake in lung [3, 6]?
Answer: 2.6±0.6 %ID/g

Question: And the uptake in muscle [3, 6]?
Answer: 2.7±0.6 %ID/g

Question: What about the uptake in pancreas [3, 6] of the same compound?
Answer: 46±9.5 %ID/g

Question: What about the uptake in spleen [3, 6] of the same compound?
Answer: 7.1±0.9 %ID/g

Question: What about the uptake in blood [3, 7] of the same compound?
Answer: 1.5±0.1 %ID/g

Question: What about the uptake in bone [3, 7] of the same compound?
Answer: 1.0±0.6 %ID/g

Question: And the uptake in brain [3, 7]?
Answer: 0.8±0.1 %ID/g

Question: What about the uptake in heart [3, 7] of the same compound?
Answer: 2.0±0.2 %ID/g

Question: What about the uptake in kidney [3, 7] of the same compound?
Answer: 11±1.4 %ID/g

Question: What about the uptake in liver [3, 7] of the same compound?
Answer: 2.6±0.2 %ID/g

Question: And the uptake in lung [3, 7]?
Answer: 1.6±0.4 %ID/g

Question: What about the uptake in muscle [3, 7] of the same compound?
Answer: 1.3±0.5 %ID/g

Question: And the uptake in pancreas [3, 7]?
Answer: 23±6.8 %ID/g

Question: And the uptake in spleen [3, 7]?
Answer: 5.6±2.2 %ID/g

Question: And the uptake in tumor [3, 7]?
Answer: 5.0±0.4 %ID/g
